We go through 24 sequences from paper PMC4667898, “Antibody Binding Selectivity: Alternative Sets of Antigen Residues Entail High-Affinity Recognition” (PLoS ONE, 2015).

The test relates to scFv1F4-QL34S. Description: PEPperCHIP peptide array, spot fluorescence after staining with DyLight680-labeled scFv. Format: binding. How it is done:
ScFv1F4-QL34S labeling with DyLight680, peptide array synthesis and binding detection were performed by PEPperPRINT GmbH (PEPperCHIP® Platform Technology, Heidelberg, Germany). The permutation scans were carried out on the WT decapeptide ^6TAMFQDPQER^15 and on its variants. In a permutation scan, the effect on binding of replacing each of the ten peptide positions by all amino-acids except cysteine is analyzed, which requires the synthesis of 190 spot peptides per starting peptide (19 amino-acids at 10 positions). Two arrays were prepared, each containing the permutation analysis of the WT peptide and of 19 variants. All peptides were synthesized in duplicate (7,600 peptide spots per array). The peptide arrays were stained with the DyLight680-labeled scFv1F4-QL34S. The permutation scans of the WT peptide and of variant ^6TAMFQDPFER^15 are highlighted by white frames. The staining pattern of array A (S1 Fig) was published previously.
The objective was to investigate whether a starting amino-acid replacement modifies the effect on binding of amino-acid changes at neighboring positions. For example the effect of a deleterious starting change could be compensated by a replacement elsewhere. Residue interdependences may also be found in the case of non-deleterious starting replacements. They can be identified by comparing the permutation patterns of the WT and variant peptides. Arrays A [28] (S1 Fig) and B (Fig 1) each contained the permutation scans of the WT decapeptide ^6TAMFQDPQER^15 and of nineteen variants. Data recorded for the WT and 14 variant peptides of array A were described previously. The data presented here include all permutation scans in array B (WT and 19 variants), together with those of 5 variants in array A. One of these was performed twice in array A (peptide ^6TRMFQDVQER^15). Therefore the data include the permutations scans of the WT and of 23 variant decapeptides (Table 1), each of them being recorded at least in duplicate.
The repeatability of fluorescence measurements can be assessed because: i/ all peptides were synthesized in duplicate (Fig 1), ii/ the duplicated scan of peptide ^6TRMFQDVQER^15 was repeated in array A and iii/ several peptides occur repeatedly within a same or in different families. Array B contained 3,222 different peptides, with 105 peptides repeated between 6 and 46 times.
The signal intensity ranges differed in the two arrays: 6,800 and 18,100 for the scFv—WT decapeptide interaction in arrays A and B, respectively (Table 1). However normalization of the intensity values with respect to the mean value of the scFv1F4-WT peptide intensity in each panel, produced well-superimposed patterns (Fig 2). […] In addition, assuming that T6 is not part of the epitope, the variability observed for this position (standard deviation = 0.12) provides insight into the statistical significance of the normalized intensities.

[1] abbreviates: array B, mean intensity relative to WT decapeptide of array B.
[2] abbreviates: array A, mean intensity relative to WT decapeptide of array A.

Where only a bound is given, the exact number is not on record here.

Take “TAMDQDPQER [starting variant of the WT decapeptide on array B]”: the “% of WT signal” value under setting [1] was found to be 3%.

For the sequence “TAMFADPQER [starting variant of the WT decapeptide on array B]”, under setting [1], the “% of WT signal” value is 2%.

With “TAMFKDPQER [starting variant of the WT decapeptide on array B]”, the “% of WT signal” value under setting [1] turned out to be 2%.

As for “TAMFQDHQER [starting variant of the WT decapeptide on array B]”, the “% of WT signal” value under setting [1] was 4%.

As for “TAMFQDPFER [starting variant of the WT decapeptide on array B]”, the “% of WT signal” value under setting [1] came out at 68%.

Turning to “TAMFQDPQEA [starting variant of the WT decapeptide on array B]”, the “% of WT signal” value under setting [1] is reported as 6%.

Regarding “TAMFQDPQEQ [starting variant of the WT decapeptide on array B]”, under setting [1], the “% of WT signal” value was determined as 24%.

With “TAMFQDPQER [WT decapeptide, residues 6-15 of HPV16-E6 oncoprotein, array-synthesized]”, under setting [1], the “% of WT signal” value is 100%.

Take “TAMFQDPSFM [starting variant of the WT decapeptide on array B]”: the “% of WT signal” value under setting [1] is recorded as 2%.

On to “TAMFQDPYER [starting variant of the WT decapeptide on array B]”, for which the “% of WT signal” value under setting [1] came out at 37%.

For the sequence “TAMFQDQQER [starting variant of the WT decapeptide on array B]”, the “% of WT signal” value under setting [1] stood at 5%.

“TAMFQDVFER [starting variant of the WT decapeptide on array A]”: the “% of WT signal” value is 14% under setting [2] and “exceeded 10%” (array A, mean intensity relative to WT decapeptide of array A, listed as P12V-Q13F).

On to “TAMFQDVQER [starting variant of the WT decapeptide on array B]”, for which, under setting [1], the “% of WT signal” value was 16%.

On to “TAMFQDVYER [starting variant of the WT decapeptide on array B]”, for which the “% of WT signal” value runs as follows: under setting [1], 16%; (array B, mean intensity relative to WT decapeptide of array B, listed as P12V-Q13Y) “exceeded 10%”.

Take “TAMFQDYQER [starting variant of the WT decapeptide on array B]”: under setting [1], the “% of WT signal” value was determined as 7%. In addition, the “averaged fluorescence signal as % of that recorded with the WT peptide” value (array not stated at the place (arrays A and B)) was below 10%.

In the case of “TAMFQRAQER [starting variant of the WT decapeptide on array B]”, the “% of WT signal” value under setting [1] is on record as 3%.

On to “TAMFQSPYER [starting variant of the WT decapeptide on array A]”, for which the “% of WT signal” value is recorded as 21% under setting [2] and “exceeded 10%” (array A, mean intensity relative to WT decapeptide of array A, listed as D11S-Q13Y).

For “TAMFQTPQER [starting variant of the WT decapeptide on array B]”, the “% of WT signal” value under setting [1] was 3%.

For the sequence “TAMLADPQER [starting variant of the WT decapeptide on array B]”, the “% of WT signal” value under setting [1] is 3%.

As for “TAMLQDPQER [starting variant of the WT decapeptide on array B]”, the “% of WT signal” value under setting [1] was determined as 3%.

As to “TGSFQDPQER [starting variant of the WT decapeptide on array B]”, the “% of WT signal” value under setting [1] is 66% and the “% of WT signal” value (array B, mean intensity relative to WT decapeptide of array B, listed as A7G-M8S) is on record as “exceeded 10%”.

With “TGSFQRASFM [starting variant of the WT decapeptide on array B]”, under setting [1], the “% of WT signal” value was found to be 2%.

“TQMFQDPYER [starting variant of the WT decapeptide on array A]”: the “% of WT signal” value reads like this: under setting [2], 23%; (array A, mean intensity relative to WT decapeptide of array A, listed as A8Q-Q13Y) “exceeded 10%”.

With “TRMFQDVQER [starting variant of the WT decapeptide on array A]”, the “% of WT signal” value under setting [2] amounted to 5%.
